Assay results from PubChem BioAssay AID200 (DTP/NCI, 2004).
Values joined by “and” are separate entries in the source; they are usually repeats but may differ in a detail not shown here. Identical values can stand only once. Toxic doses and inconclusive results are not listed.

System: B6C3F1 mice, B16 melanoma ip, median survival T/C
Experiment: NCI In Vivo Anticancer Drug Screen. Data for tumor model B16 Melanoma (intraperitoneal) in B6C3F1 mice
Details: endpoint: median survival time, higher = longer survival
In short: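 Readout: survival or tumor size in treated mice relative to vehicle controls (T/C). Model uses transplantable tumors grown in mice.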

[1] = dose: 12.5 mg/kg/injection, schedule: Q01DX009 (ip), vehicle: saline with Tween-80
[2] = dose: 25.0 mg/kg/injection, schedule: Q01DX009 (ip), vehicle: saline with Tween-80
[3] = dose: 50.0 mg/kg/injection, schedule: Q01DX009 (ip), vehicle: saline with Tween-80
[4] = dose: 25.0 mg/kg/injection, schedule: Q01DX009 (ip), vehicle: saline

SMILES: CCOc1ccc(NC(=O)C(C(C)N2CCCCC2)N2CCCCC2)cc1 (centres undefined)
- T/C [1]: 102 % of control
- T/C [2]: 94 % of control
- T/C [3]: 93 % of control

SMILES: CCCCCCCC1C(=O)OC2CC3C(C)=CC(=O)C(O)C3(C)C3C4(O)OCC23C1C(C)C4O (centres undefined)
- T/C (dose: 1.25 mg/kg/injection, schedule: Q01DX009 (ip), vehicle: Klucel (hydroxypropylcellulose) (HPC)): 156 % of control
- T/C (dose: 2.5 mg/kg/injection, schedule: Q01DX009 (ip), vehicle: Klucel (hydroxypropylcellulose) (HPC)): 110 % of control and 91 % of control
- T/C (dose: 5.0 mg/kg/injection, schedule: Q01DX009 (ip), vehicle: Klucel (hydroxypropylcellulose) (HPC)): 118 % of control and 97 % of control
- T/C (dose: 10.0 mg/kg/injection, schedule: Q01DX009 (ip), vehicle: Klucel (hydroxypropylcellulose) (HPC)): 114 % of control and 250 % of control
- T/C (dose: 20.0 mg/kg/injection, schedule: Q01DX009 (ip), vehicle: Klucel (hydroxypropylcellulose) (HPC)): 162 % of control

SMILES: [Cl][Sn]([c]1ccccc1)[c]1ccccc1
- T/C (dose: 3.12 mg/kg/injection, schedule: Q01DX009 (ip), vehicle: saline): 116 % of control
- T/C (dose: 3.13 mg/kg/injection, schedule: Q01DX009 (ip), vehicle: saline): 93 % of control
- T/C (dose: 6.25 mg/kg/injection, schedule: Q01DX009 (ip), vehicle: saline): 122 % of control and 106 % of control
- T/C (dose: 12.5 mg/kg/injection, schedule: Q01DX009 (ip), vehicle: saline): 107 % of control
- T/C [4]: 118 % of control

SMILES: CC(=O)c1ccc([NH-])c([NH-])c1.[Cl][Pt+2][Cl]
- T/C (dose: 2.5 mg/kg/injection, schedule: Q01DX009 (ip), vehicle: distilled water + Tween-80): 116 % of control
- T/C (dose: 5.0 mg/kg/injection, schedule: Q01DX009 (ip), vehicle: distilled water + Tween-80): 116 % of control
- T/C (dose: 10.0 mg/kg/injection, schedule: Q01DX009 (ip), vehicle: distilled water + Tween-80): 114 % of control and 124 % of control
- T/C (dose: 20.0 mg/kg/injection, schedule: Q01DX009 (ip), vehicle: distilled water + Tween-80): 114 % of control
- T/C (dose: 40.0 mg/kg/injection, schedule: Q01DX009 (ip), vehicle: distilled water + Tween-80): 119 % of control

SMILES: CCN(CC)CCOCCO
- T/C (dose: 12.0 mg/kg/injection, schedule: Q01DX009 (ip), vehicle: saline): 105 % of control
- T/C [4]: 116 % of control
- T/C (dose: 50.0 mg/kg/injection, schedule: Q01DX009 (ip), vehicle: saline): 98 % of control
- T/C (dose: 100.0 mg/kg/injection, schedule: Q01DX009 (ip), vehicle: saline): 90 % of control

SMILES: CCCCc1ccc(-n2c(C)c(COC(=O)NC)c(COC(=O)NC)c2C)cc1
- T/C (dose: 6.25 mg/kg/injection, schedule: Q01DX009 (ip), vehicle: Klucel (hydroxypropylcellulose) (HPC)): 170 % of control
- T/C (dose: 12.5 mg/kg/injection, schedule: Q01DX009 (ip), vehicle: Klucel (hydroxypropylcellulose) (HPC)): 174 % of control
- T/C (dose: 25.0 mg/kg/injection, schedule: Q01DX009 (ip), vehicle: Klucel (hydroxypropylcellulose) (HPC)): 169 % of control

SMILES: OCC(O)C(O)C(O)C(O)CO (centres undefined)
- T/C (dose: 75.0 mg/kg/injection, schedule: Q01DX009 (ip), vehicle: saline): 107 % of control
- T/C (dose: 150.0 mg/kg/injection, schedule: Q01DX009 (ip), vehicle: saline): 104 % of control
- T/C (dose: 300.0 mg/kg/injection, schedule: Q01DX009 (ip), vehicle: saline): 112 % of control
- T/C (dose: 600.0 mg/kg/injection, schedule: Q01DX009 (ip), vehicle: saline): 112 % of control
- T/C (dose: 1200.0 mg/kg/injection, schedule: Q01DX009 (ip), vehicle: saline): 98 % of control

SMILES: C/C(=N\NC(N)=O)c1cccc(/C(C)=N/NC(N)=O)n1
- T/C (dose: 6.25 mg/kg/injection, schedule: Q01DX009 (ip), vehicle: saline with Tween-80): 93 % of control
- T/C [1]: 96 % of control
- T/C [2]: 87 % of control
- T/C [3]: 90 % of control

SMILES: COc1cccc2c1C(=O)c1c(O)c3c(c(O)c1C2=O)CC(O)(C(=O)CO)CC3OC1CC(N)C(O)C(C)O1 (centres undefined)
- T/C (dose: 4.1 mg/kg/injection, schedule: Q01DX001 (ip), vehicle: other): 108 % of control
- T/C (dose: 4.5 mg/kg/injection, schedule: Q01DX009 (ip), vehicle: water): 209 % of control
- T/C (dose: 6.9 mg/kg/injection, schedule: Q01DX001 (ip), vehicle: other): 114 % of control
- T/C (dose: 9.0 mg/kg/injection, schedule: Q01DX009 (ip), vehicle: water): 219 % of control
- T/C (dose: 11.5 mg/kg/injection, schedule: Q01DX001 (ip), vehicle: other): 118 % of control
- T/C (dose: 18.0 mg/kg/injection, schedule: Q01DX009 (ip), vehicle: water): 234 % of control
- T/C (dose: 19.2 mg/kg/injection, schedule: Q01DX001 (ip), vehicle: other): 123 % of control
- T/C (dose: 36.0 mg/kg/injection, schedule: Q01DX009 (ip), vehicle: water): 156 % of control

SMILES: COc1cc(C(=O)c2cocc2C(=O)c2ccc3c(c2)OCO3)cc(OC)c1OC
- T/C (dose: 50.0 mg/kg/injection, schedule: Q01DX009 (ip), vehicle: Klucel (hydroxypropylcellulose) (HPC)): 92 % of control and 101 % of control
- T/C (dose: 100.0 mg/kg/injection, schedule: Q01DX009 (ip), vehicle: Klucel (hydroxypropylcellulose) (HPC)): 113 % of control and 91 % of control
- T/C (dose: 200.0 mg/kg/injection, schedule: Q01DX009 (ip), vehicle: Klucel (hydroxypropylcellulose) (HPC)): 112 % of control
- T/C (dose: 400.0 mg/kg/injection, schedule: Q01DX009 (ip), vehicle: Klucel (hydroxypropylcellulose) (HPC)): 117 % of control

SMILES: CCSC(=O)N1c2ccc(OC)cc2C=CC1C#N (centres undefined)
- T/C [3]: 121 % of control and 95 % of control
- T/C (dose: 100.0 mg/kg/injection, schedule: Q01DX009 (ip), vehicle: saline with Tween-80): 124 % of control and 107 % of control
- T/C (dose: 200.0 mg/kg/injection, schedule: Q01DX009 (ip), vehicle: saline with Tween-80): 110 % of control
